Calls of active or inactive are those of the source. The rule behind the calls is not given here. A value given as a limit tells only on which side of the number the result lay.

For data set [1], the system named is PANC-1. Put plainly: Induction of apoptosis in human PANC-1 cells assessed as necrotic cells at 0.12 uM incubated for 48 hrs by Annexin V-FITC/PI staining based flow cytometry (reference value: 3.09 %). The data set is classed as functional. For orientation: In flow cytometry, cells or beads pass a laser one at a time.
The test system of data set [2] is PANC-1. Kind of data set: Induction of apoptosis in human PANC-1 cells at 1 uM incubated for 48 hrs in presence of OL by Annexin V-FITC/PI staining based flow cytometry relative to control. It counts as functional.
Data set [3] deals with PANC-1. Kind of data set: Induction of cell cycle arrest in human PANC-1 cells assessed as accumulation at G1 phase at 1 uM incubated for 24 hrs in presence of OL by PI staining based flow cytometry (reference value: 51.70 %). The data set is classed as functional.
Data set [4] can be described thus: Toxicity in BALB/c mouse xenografted with human PANC-1 cells assessed as drug tolerance at 20 mg/kg, ip for 4 weeks administered for 5 days consecutively and 2 days without treatment on every week in presence of OL. It counts as organism-based. As to conditions: in vivo, 672 h. A general note: A xenograft is tissue or cells of one species grown in another, often human tumour cells in immunodeficient mice.

Data set [5] relates to PANC-1. Put plainly: Induction of cell cycle arrest in human PANC-1 cells assessed as accumulation at G2 phase at 1 uM incubated for 24 hrs in presence of OL by PI staining based flow cytometry (reference value: 9.36 %). The data set is classed as functional.
Data set [6] deals with PANC-1. Kind of data set: Antitumor activity against human PANC-1 cells xenografted in BALB/c mouse assessed as inhibition of tumor weight at 20 mg/kg, ip for 4 weeks administered for 5 days consecutively and 2 days without treatment on every week in presence of OL. It counts as functional, organism-based.
Data set [7] is described as follows: Toxicity in BALB/c mouse xenografted with human PANC-1 cells assessed as body weight loss at 20 mg/kg, ip for 4 weeks administered for 5 days consecutively and 2 days without treatment on every week. It counts as organism-based. The conditions noted are these: in vivo, 672 h.
The subject of data set [8] is PANC-1. Kind of data set: Induction of DNA damage in human PANC-1 cells assessed as decrease in RAD51 level at 1 uM in presence of OL by Western blot analysis. The data set is classed as functional, cell-based. A general note: Immunoblotting shows a protein as a band on a membrane.
The subject of data set [9] is PANC-1. Put plainly: Induction of cell cycle arrest in human PANC-1 cells assessed as accumulation at G1 phase at 1 uM incubated for 24 hrs by PI staining based flow cytometry (reference value: 51.70 %). It counts as functional.
The subject of data set [10] is PANC-1. Kind of data set: Induction of apoptosis in human PANC-1 cells assessed as late apoptotic cells at 0.25 uM incubated for 48 hrs by Annexin V-FITC/PI staining based flow cytometry (reference value: 3.87 %). The data set is classed as functional.
Data set [11] relates to PANC-1. Put plainly: Antitumor activity against human PANC-1 cells xenografted in BALB/c mouse assessed as reduction in tumor growth at 20 mg/kg, ip for 4 weeks administered for 5 days consecutively and 2 days without treatment on every week in presence of OL. The data set is classed as functional, organism-based.
Data set [12] can be described thus: Toxicity in BALB/c mouse xenografted with human PANC-1 cells assessed as pathological changes in spleen at 20 mg/kg, ip for 4 weeks administered for 5 days consecutively and 2 days without treatment on every week in presence of OL by H and E staining based analysis. It counts as organism-based. As to conditions: in vivo, 672 h.
The test system of data set [13] is PANC-1. Put plainly: Induction of apoptosis in human PANC-1 cells assessed as viable cells at 0.25 uM incubated for 48 hrs by Annexin V-FITC/PI staining based flow cytometry (reference value: 91.64 %). The data set is classed as functional. The conditions noted are these: read-out: Activity.
Data set [14] has as its system PANC-1. Put plainly: Induction of apoptosis in human PANC-1 cells assessed as late apoptotic cells at 0.5 uM incubated for 48 hrs by Annexin V-FITC/PI staining based flow cytometry (reference value: 3.87 %). The data set is classed as functional.
In data set [15] the test system is PANC-1. Kind of data set: Induction of cell cycle arrest in human PANC-1 cells assessed as accumulation at G1/S phase at 0.12 to 2 uM incubated for 24 hrs by PI staining based flow cytometry. It counts as functional. As to conditions: dose 0.12-2 µM.
Data set [16] concerns PANC-1. Put plainly: Induction of cell cycle arrest in human PANC-1 cells assessed as accumulation at G1 phase at 0.5 uM incubated for 24 hrs by PI staining based flow cytometry (reference value: 51.70 %). It counts as functional.
Data set [17] in a line: Toxicity in BALB/c mouse xenografted with human PANC-1 cells assessed as drug tolerance at 20 mg/kg, ip for 4 weeks administered for 5 days consecutively and 2 days without treatment on every week. It counts as organism-based. As to conditions: in vivo, 672 h.
Data set [18] deals with PANC-1. Kind of data set: Anti-migration activity in human PANC-1 cells at 1 uM in presence of OL incubated for 24 hrs by wound healing assay. It counts as functional, cell-based.
Data set [19] relates to PANC-1. Put plainly: Induction of cell cycle arrest in human PANC-1 cells assessed as accumulation at S phase at 0.12 uM incubated for 24 hrs by PI staining based flow cytometry (reference value: 38.94 %). It counts as functional.
A short description of data set [20]: Toxicity in BALB/c mouse xenografted with human PANC-1 cells assessed as pathological changes in liver at 20 mg/kg, ip for 4 weeks administered for 5 days consecutively and 2 days without treatment on every week in presence of OL by H and E staining based analysis. The data set is classed as organism-based. As to conditions: in vivo, 672 h.
Data set [21] is described as follows: Toxicity in BALB/c mouse xenografted with human PANC-1 cells assessed as animal morbidity at 20 mg/kg, ip for 4 weeks administered for 5 days consecutively and 2 days without treatment on every week in presence of OL. It counts as organism-based. As to conditions: in vivo, 672 h.
In data set [22] the test system is PANC-1. Put plainly: Induction of cell cycle arrest in human PANC-1 cells assessed as accumulation at G2/M phase at 1 uM incubated for 24 hrs in presence of OL by PI staining based flow cytometry. It counts as functional.
In data set [23] the test system is PANC-1. Put plainly: Antitumor activity against human PANC-1 cells xenografted in BALB/c mouse assessed as reduction in tumor growth at 20 mg/kg, ip for 4 weeks administered for 5 days consecutively and 2 days without treatment on every week. The data set is classed as functional, organism-based.
The nature of data set [24]: Toxicity in BALB/c mouse xenografted with human PANC-1 cells assessed as pathological changes in kidney at 20 mg/kg, ip for 4 weeks administered for 5 days consecutively and 2 days without treatment on every week in presence of OL by H and E staining based analysis. It counts as organism-based. As to conditions: in vivo, 672 h.
A short description of data set [25]: Toxicity in BALB/c mouse xenografted with human PANC-1 cells assessed as animal mortality at 20 mg/kg, ip for 4 weeks administered for 5 days consecutively and 2 days without treatment on every week in presence of OL. The conditions noted are these: in vivo, 672 h. The data set is classed as organism-based.
The subject of data set [26] is PANC-1. Put plainly: Induction of apoptosis in human PANC-1 cells assessed as viable cells at 1 uM incubated for 48 hrs in presence of OL by Annexin V-FITC/PI staining based flow cytometry (reference value: 91.64 %). It counts as functional. The conditions noted are these: read-out: Activity.
Data set [27] concerns PANC-1. Kind of data set: Synergistic inhibition of colony formation in human PANC-1 cells at 2 uM incubated for 14 days in presence of JQ1 by crystal violet staining based analysis. The data set is classed as functional, cell-based. As to conditions: time 14.0 day.
Data set [28] deals with PANC-1. Put plainly: Induction of cell cycle arrest in human PANC-1 cells assessed as decrease in CDK6 level at 2 uM incubated for 24 hrs in presence of JQ1 by […]. The data set is classed as functional.
Data set [29] deals with PANC-1. Put plainly: Induction of apoptosis in human PANC-1 cells assessed as decrease in Bcl-2 level at 2 uM incubated for 48 hrs in presence of JQ1 by Western blot analysis. The data set is classed as functional, cell-based.
Data set [30] addresses Protein cereblon/Poly [ADP-ribose] polymerase 1 (Homo sapiens, UniProt P09874+Q96SW2). Put plainly: PROTAC activity at CRBN/PARP1 in human BXPC-3 cells assessed as induction of PARP1 degradation incubated for 24 hrs by Western blot analysis relative to control. The data set is classed as cell-based.
Data set [31] deals with PANC-1. Kind of data set: Synergistic antiproliferative activity against human PANC-1 cells expressing wild-type BRCA assessed as combination index at 2:1 ratio of compound:JQ1 incubated for 5 days by CCK8 assay. The data set is classed as functional. As to conditions: time 5 day.

Chain of Protein cereblon/Poly [ADP-ribose] polymerase 1 (P09874 2-1014 limits assumed): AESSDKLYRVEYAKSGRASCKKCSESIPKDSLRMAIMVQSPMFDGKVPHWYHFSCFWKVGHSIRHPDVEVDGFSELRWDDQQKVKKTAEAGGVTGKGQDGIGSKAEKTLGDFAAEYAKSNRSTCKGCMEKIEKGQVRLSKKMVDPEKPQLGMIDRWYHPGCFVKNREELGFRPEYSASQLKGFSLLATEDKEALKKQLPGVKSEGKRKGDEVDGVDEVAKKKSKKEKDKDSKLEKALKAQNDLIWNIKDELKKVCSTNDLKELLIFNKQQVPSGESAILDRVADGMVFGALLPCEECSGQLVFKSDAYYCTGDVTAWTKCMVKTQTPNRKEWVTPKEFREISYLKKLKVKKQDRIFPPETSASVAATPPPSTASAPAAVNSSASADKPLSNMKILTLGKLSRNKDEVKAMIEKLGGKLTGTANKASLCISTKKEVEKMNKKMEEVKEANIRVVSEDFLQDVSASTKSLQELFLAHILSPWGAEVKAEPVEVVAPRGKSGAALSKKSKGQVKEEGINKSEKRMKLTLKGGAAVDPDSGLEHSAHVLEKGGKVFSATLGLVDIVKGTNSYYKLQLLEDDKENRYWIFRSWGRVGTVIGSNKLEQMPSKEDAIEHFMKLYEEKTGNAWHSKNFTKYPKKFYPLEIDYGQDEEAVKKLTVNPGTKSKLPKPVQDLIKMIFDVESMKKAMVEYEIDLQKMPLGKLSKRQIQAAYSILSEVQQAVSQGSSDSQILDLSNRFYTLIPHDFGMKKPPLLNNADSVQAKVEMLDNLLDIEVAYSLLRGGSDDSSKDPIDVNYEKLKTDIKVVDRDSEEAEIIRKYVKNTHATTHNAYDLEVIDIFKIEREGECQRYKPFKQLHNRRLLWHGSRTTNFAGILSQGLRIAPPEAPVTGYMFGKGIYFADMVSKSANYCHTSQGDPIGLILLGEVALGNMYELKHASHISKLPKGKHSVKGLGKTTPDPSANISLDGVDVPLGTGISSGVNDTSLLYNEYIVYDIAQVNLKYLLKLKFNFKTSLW
Chain of Protein cereblon/Poly [ADP-ribose] polymerase 1 (Q96SW2 whole entry partner): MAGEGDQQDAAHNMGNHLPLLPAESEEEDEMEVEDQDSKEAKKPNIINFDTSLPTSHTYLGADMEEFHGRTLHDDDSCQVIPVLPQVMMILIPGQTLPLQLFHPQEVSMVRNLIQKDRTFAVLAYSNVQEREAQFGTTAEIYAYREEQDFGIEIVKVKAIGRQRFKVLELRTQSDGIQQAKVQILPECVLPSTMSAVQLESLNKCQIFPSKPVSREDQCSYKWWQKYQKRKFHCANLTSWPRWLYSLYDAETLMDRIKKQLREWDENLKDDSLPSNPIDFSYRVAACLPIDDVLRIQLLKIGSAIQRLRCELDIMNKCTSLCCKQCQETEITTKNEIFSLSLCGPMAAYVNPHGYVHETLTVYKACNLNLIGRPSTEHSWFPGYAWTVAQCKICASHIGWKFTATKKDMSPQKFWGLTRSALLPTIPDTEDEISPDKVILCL

Consider `Cc1sc2c(c1C)C(c1ccc(Cl)cc1)=N[C@@H](CC(=O)OC(C)(C)C)c1nnc(C)n1-2`, for which the Activity in the data set with PANC-1 [1] is 2.94%; in the data set with PANC-1 [2], 26.9%; with PANC-1 [3], 58.42%; in data set [4], “Non-toxic”; in the data set with PANC-1 [5] it was 15.74%; in data set [7], “Toxic”. Besides, the Activity in the data set with PANC-1 [9] was 58.49%; in the data set with PANC-1 [10], 4.07%; in data set [12], “Non-toxic”; in the data set on PANC-1 [14] it was 10.08%; in the data set with PANC-1 [16], 53.78%; in [17], “Non-toxic”. Besides, the Activity in the data set on PANC-1 [19] is given as 40.51%; in data set [20], “Non-toxic”; in data set [21], “Non-toxic”; in the data set on PANC-1 [22], “Active; Only A Slight Increase Observed”; in data set [24], “Non-toxic”; in [25], “Non-toxic”. Besides, the inhibition result in the data set on PANC-1 [6] was “Active”. For the same compound, the result with PANC-1 [8], in the data set with PANC-1 [11], with PANC-1 [15], with PANC-1 [18] and in the data set with PANC-1 [23] was Active. Further, in the data set on PANC-1 [13], the viability at 0.25 µM stood at 89.4%. Further, in the data set on PANC-1 [26], the viability at 1 µM amounted to 68.3%.
On to `O=C1CCC(N2C(=O)c3cccc(NC(=O)CNCCCCCCCCCCC(=O)N4CCN(C(=O)c5cc(Cc6n[nH]c(=O)c7ccccc67)ccc5F)CC4)c3C2=O)C(=O)N1` (stereo unspecified), for which the inhibition result with PANC-1 [27] was “Active”. Besides, the result with PANC-1 [28] and in the data set on PANC-1 [29] was Active. The Emax – broadly, the size of the effect at its maximum, as opposed to the concentration needed – in data set [30] was over 92%.
As for `O=C(c1cc(Cc2n[nH]c(=O)c3ccccc23)ccc1F)N1CCN(C(=O)C2CC2)CC1` [OLAPARIB], the CI with PANC-1 [31] is recorded as under 1.

For the origin of these results see ChEMBL document CHEMBL6096630, “Enhancing therapeutic efficacy in homologous recombination-proficient pancreatic cancer via the combination of PARP1-PROTAC and a BRD4 inhibitor” (Bioorg Med Chem, 2024).
